# Test results: US12486274B2, “Substituted pyrazolo-pyrimidines and uses thereof” (Verge Analytics, Inc., priority 2020, dated 2025)
# pEC50, pIC50: −log10 of the molar value. Counter-ions that a name gives are not always drawn.
# Experiments:
# [1] = target: Full length human recombinant PIKFYVE (Homo sapiens (Human), UniProt Q9Y2I7); assay: Inhibition of PIKfyve (microfluidic electrophoresis kinase assay); type: biochemical; conditions: 2 nM enzyme, PI3P/PS substrate, 3 h at room temperature, 12 concentrations
# Summary of the method: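 GST-tagged full-length PIKfyve (baculovirus-expressed, 2 nM final) with fluorescent PI3P/PS substrate (1 μM PI3P) and […] in HEPES pH 7.5 with Mg2+/Mn2+, 1% DMSO, 3 h at room temperature; 12 concentrations. PI(3,5)P product and substrate separated by microfluidic electrophoresis; % inhibition from product/sum ratio.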
# [2] = test system: HEK 293T transfected with plasmids containing TDP-43 Q331K mutation; assay: HEK/TDP Survival assay (Cell-Titer-Glo); type: cell-based; conditions: Homo sapiens; HEK 293T TDP-43 Q331K, 48 hrs, CTG readout
# Method: HEK/TDP Survival assay: Immortalized human embryonic kidney 293T (HEK 293T) were transfected with plasmids containing TDP-43 Q331K mutation, resulting in an increase in cell death that is biologically relevant to ALS patients. Cell death is measured as reductions in the amount of ATP, an indicator of metabolically active cells, that is quantified by a luminescence Cell-Titer-Glo® (CTG) reagent. Compounds are evaluated in this model for changes in CTG compared to no treatment group. Increased signal indicates improved survival (rescue) and decreased signal indicates decreased survival.
# Cell rescue was measured in a 96-well format with eight different concentrations of the test compound over 48 hrs with 6 replicates. The Promega Cell-Titer-Glo® Luminescent Cell Viability Assay was used to quantify ATP, an indicator of metabolically active cells (see protocol: https://www.promega.com/-/media/files/resources/protocols/technical-manuals/101/celltiterglo-2-O-assay-protocol.pdf?la=en). The luminescence signal was detected using the PerkinElmer En Vision or Molecular Devices SpectraMax.
# The effect of a compound at a given dose on cell viability was determined using a three step procedure. First, Hedge's g for the Cell Titer-Glo luminescence values using six untreated wells on every plate as a control was calculated. […] Finally, values from all compound-dose pairs were corrected for multiple hypothesis testing using the Empirical Bayes framework of Stephens, M. (False discovery rates: a new deal, Biostatistics, 18 [2], 2017, 275-294) yielding credible intervals for the measured effect and associated s values.
# Briefly, this method computes a local false sign rate for each experiment. Analogous to the local false discovery rate of Efron, B. (Size, power and false discovery rates, Ann. Statist. 35 [4], 2007, 1351-1377) this value measures the confidence in the sign of each effect (rather than confidence in each effect being non-zero). The s values reported in the previous figures are the expected fraction of errors if estimating the sign of all effects with greater absolute local false sign rate, defined in analogy to the q value of Storey, JD (The positive false discovery rate: a Bayesian interpretation and the q-value, Ann. Statist. 31 [6] 2003, 2013-2035).
# Drugs that yielded signed log s values greater than 3 were considered hits. This threshold was determined by a separate calibration experiment in which Cell Titer-Glo® was measured in blank plates consisting of untreated cells to assess the noise inherent in the assay. Data are presented as the maximal effect of rescue obtained from the dose-response curve.
# [3] = test system: C9 iPSC MN (ALS patient derived motor neurons); assay: iPSC MN Survival assay; type: cell-based, human
# Method: [The source words this procedure for another variant and reports this variant under the same test.] iPSC MN Survival assay: Fibroblasts from ALS patients with known SOD1 A4V mutation were reprogrammed into inducible pluripotent stem cells (iPSC) and then differentiated to motor neurons. In culture, ALS patient derived motor neurons show increased death rate compared to motor neurons derived from healthy individuals in a stressed condition (nutrient deprived media, Hank's buffered salt solution-HBSS).
# Cell rescue was measured following more than two different concentrations of each compound for six days with greater than four replicates in a 96-well format to ensure studies with power >0.8. Cells are transduced with a GFP reporter and imaged once a day to track survival. A broad-spectrum caspase inhibitor served as the positive control.
# Microscopy image-based readout: Cells are transduced with a GFP reporter and imaged once a day with a blue laser to track survival. Imagers used include the Biotek Cytation 5 and Thermo Fisher EVOS Auto FL 2. All Images undergo uniform processing consisting of rolling hat background subtraction and contrast adjustment.
# Cells are identified by their shape and each cell is tracked across images and time points for each well. Survival is visually assessed from the Kaplan-Meier curves. Survival of the cells is modeled and tested using a mixed effects Cox regression where each well is modeled as the random effect, and the group (control/treatment) as the fixed effect. Hazard ratios between treatment and control are estimated within the Cox regression where a value of 1.0 denotes no change, values >1.0 indicate decreased survival in response to treatment, and values <1.0 indicate increased survival in response to treatment. Data are presented as the maximal reduction in hazard ratio scores measured at various concentrations.
# Full length human recombinant PIKFYVE, sequence (Q9Y2I7 whole entry): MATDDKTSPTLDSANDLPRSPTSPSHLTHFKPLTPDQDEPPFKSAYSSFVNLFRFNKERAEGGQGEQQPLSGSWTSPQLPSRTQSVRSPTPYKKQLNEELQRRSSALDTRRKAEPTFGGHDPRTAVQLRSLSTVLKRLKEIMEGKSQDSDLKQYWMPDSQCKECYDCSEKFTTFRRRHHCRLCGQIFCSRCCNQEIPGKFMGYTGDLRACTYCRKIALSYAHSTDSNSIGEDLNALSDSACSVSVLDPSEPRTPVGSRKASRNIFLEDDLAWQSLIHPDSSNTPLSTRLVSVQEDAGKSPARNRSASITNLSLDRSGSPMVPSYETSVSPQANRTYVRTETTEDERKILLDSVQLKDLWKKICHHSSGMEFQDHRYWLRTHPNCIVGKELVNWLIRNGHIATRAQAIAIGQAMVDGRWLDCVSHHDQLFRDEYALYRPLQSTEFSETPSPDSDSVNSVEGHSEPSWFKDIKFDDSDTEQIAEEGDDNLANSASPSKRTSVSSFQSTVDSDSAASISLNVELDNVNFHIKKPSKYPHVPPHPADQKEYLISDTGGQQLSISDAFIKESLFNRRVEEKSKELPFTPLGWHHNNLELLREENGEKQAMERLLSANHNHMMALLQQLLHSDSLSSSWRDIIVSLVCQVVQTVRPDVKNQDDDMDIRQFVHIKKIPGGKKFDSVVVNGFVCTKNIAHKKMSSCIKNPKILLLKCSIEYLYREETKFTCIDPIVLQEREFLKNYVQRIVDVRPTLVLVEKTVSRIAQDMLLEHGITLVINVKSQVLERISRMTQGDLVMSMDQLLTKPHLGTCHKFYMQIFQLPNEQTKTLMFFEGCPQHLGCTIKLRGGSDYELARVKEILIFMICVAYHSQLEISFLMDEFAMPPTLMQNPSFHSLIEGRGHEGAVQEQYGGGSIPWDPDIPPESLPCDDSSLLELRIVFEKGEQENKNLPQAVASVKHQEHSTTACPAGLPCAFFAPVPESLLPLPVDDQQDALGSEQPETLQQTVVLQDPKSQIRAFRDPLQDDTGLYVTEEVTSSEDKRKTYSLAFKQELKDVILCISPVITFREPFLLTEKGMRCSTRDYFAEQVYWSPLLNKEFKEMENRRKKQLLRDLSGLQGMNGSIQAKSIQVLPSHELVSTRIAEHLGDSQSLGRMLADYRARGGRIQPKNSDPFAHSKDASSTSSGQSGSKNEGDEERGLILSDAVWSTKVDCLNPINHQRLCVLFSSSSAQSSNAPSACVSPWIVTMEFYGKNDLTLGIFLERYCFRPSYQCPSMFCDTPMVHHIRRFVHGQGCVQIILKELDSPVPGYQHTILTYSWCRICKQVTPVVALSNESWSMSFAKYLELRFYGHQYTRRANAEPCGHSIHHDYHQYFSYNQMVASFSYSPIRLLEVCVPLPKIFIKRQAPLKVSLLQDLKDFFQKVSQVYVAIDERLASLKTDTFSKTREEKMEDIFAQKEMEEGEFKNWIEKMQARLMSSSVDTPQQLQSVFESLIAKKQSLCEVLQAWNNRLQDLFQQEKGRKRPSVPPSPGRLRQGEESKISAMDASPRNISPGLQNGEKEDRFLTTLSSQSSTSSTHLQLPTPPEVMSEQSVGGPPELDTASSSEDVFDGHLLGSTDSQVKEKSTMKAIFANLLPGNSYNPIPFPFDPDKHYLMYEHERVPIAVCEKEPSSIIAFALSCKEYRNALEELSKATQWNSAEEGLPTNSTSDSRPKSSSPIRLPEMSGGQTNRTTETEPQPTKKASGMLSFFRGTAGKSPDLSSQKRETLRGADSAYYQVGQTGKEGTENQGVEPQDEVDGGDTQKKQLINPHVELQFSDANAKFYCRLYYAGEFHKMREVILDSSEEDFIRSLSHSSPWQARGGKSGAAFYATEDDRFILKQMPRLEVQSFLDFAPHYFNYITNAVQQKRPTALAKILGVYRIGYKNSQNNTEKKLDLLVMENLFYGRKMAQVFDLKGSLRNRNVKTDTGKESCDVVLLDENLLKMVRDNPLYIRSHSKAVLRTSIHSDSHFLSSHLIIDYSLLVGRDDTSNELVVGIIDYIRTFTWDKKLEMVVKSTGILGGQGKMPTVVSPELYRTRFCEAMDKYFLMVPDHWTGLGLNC
pIC50 [1],Structure (SMILES),also measured
7.49,"Cc1cccc(-c2ccn(-c3cc(N4CCOCC4)n4nc(C(=O)NCCCCN(C)C)cc4n3)n2)c1 [Example 41, N-(4-(dimethylamino)butyl)-7-morpholino-5-(3-(m-tolyl)-1H-pyrazol-1-yl)pyrazolo[1,5-a]pyrimidine-2-carboxamide]",pEC50 [2]: 7.17
7.53,"Cc1cccc(-c2ccn(-c3cc(N4CCOCC4)n4nc(-c5ccccn5)cc4n3)n2)c1 [Example 18, 4-(2-(pyridin-2-yl)-5-(3-(m-tolyl)-1H-pyrazol-1-yl)pyrazolo[1,5-a]pyrimidin-7-yl)morpholine]","pEC50 [2]: 6.98; pEC50 ([3]; Homo sapiens, iPSC, 144 h, motor neurons in nutrient deprived media (HBSS), six days, GFP imaging, read-out: C9 iPSC MN Significant survival rescue EC50): 6.00"
7.18,"CONC(=O)c1cc2nc(-n3ccc(-c4cccc(C)c4)n3)cc(N3CCOCC3)n2n1 [Example 34, N-methoxy-7-morpholino-5-(3-(m-tolyl)-1H-pyrazol-1-yl)pyrazolo[1,5-a]pyrimidine-2-carboxamide]","C9 iPSC MN Survival hazard ratio ([3]; maximal reduction in hazard ratio vs control (Cox regression), <1.0 indicates increased survival): 0.82"
7.90,"Cc1cccc(-c2ccn(-c3cc(N4CCOCC4)n4nc(C(=O)N[C@@H](C)C5CC5)cc4n3)n2)c1 [Example 22, (S)—N-(1-cyclopropylethyl)-7-morpholino-5-(3-(m-tolyl)-1H-pyrazol-1-yl)pyrazolo[1,5-a]pyrimidine-2-carboxamide]",pEC50 [2]: 6.95
7.33,"Cc1cccc(-c2ccn(-c3cc(N4CCOCC4)n4nc(C(=O)NCC5COC5)cc4n3)n2)c1 [Example 43, 7-morpholino-N-(oxetan-3-ylmethyl)-5-(3-(m-tolyl)-1H-pyrazol-1-yl)pyrazolo[1,5-a]pyrimidine-2-carboxamide]",pEC50 [2]: 7.04
7.67,"Cc1cccc(-c2ccn(-c3cc(N4CCOCC4)n4nc(C(=O)NC5CCCC5)cc4n3)n2)c1 [Example 36, N-cyclopentyl-7-morpholino-5-(3-(m-tolyl)-1H-pyrazol-1-yl)pyrazolo[1,5-a]pyrimidine-2-carboxamide]",pEC50 [2]: 7.17
8.08,"COc1cccc(-c2ccn(-c3cc(N4CCOCC4)n4nc(-c5cc(C)n(CCN(C)C)n5)cc4n3)n2)c1 [Compound 100, 2-[3-[5-[3-(3-methoxyphenyl)pyrazol-1-yl]-7-morpholino-pyrazolo[1,5-a]pyrimidin-2-yl]-5-methyl-pyrazol-1-yl]-N,N-dimethyl-ethanamine]",
< 5.00,"Cc1ccn(-c2cc(N3CCOCC3)n3nc(-c4ccncc4)cc3n2)n1 [Example 16, 4-[5-(3-methylpyrazol-1-yl)-2-(4-pyridyl)pyrazolo[1,5-a]pyrimidin-7-yl]morpholine]",
6.74,"O=C(NC1CCCC1)c1cc2nc(-n3ccc(-c4ccccc4)n3)cc(N3CCOCC3)n2n1 [Compound 77, N-cyclopentyl-7-morpholino-5-(3-phenylpyrazol-1-yl)pyrazolo[1,5-a]pyrimidine-2-carboxamide]",
< 5.00,"Cc1cncc(-c2ccn(-c3cc(N4CCOCC4)n4nc(-c5cccnc5)cc4n3)n2)c1 [Compound 102, 4-[5-[3-(5-methyl-3-pyridyl)pyrazol-1-yl]-2-(3-pyridyl)pyrazolo[1,5-a]pyrimidin-7-yl]morpholine]",
5.17,"Cc1ccccc1-c1cc(N)n(-c2cc(N3CCOCC3)n3nc(-c4ccncc4)cc3n2)n1 [Example 8, 1-(7-morpholino-2-(pyridin-4-yl)pyrazolo[1,5-a]pyrimidin-5-yl)-3-(o-tolyl)-1H-pyrazol-5-amine]",
7.67,"Cc1cccc(-c2ccn(-c3cc(N4CCOCC4)n4nc(C(=O)N[C@H](C)C5CC5)cc4n3)n2)c1 [Example 21, (R)—N-(1-cyclopropylethyl)-7-morpholino-5-(3-(m-tolyl)-1H-pyrazol-1-yl)pyrazolo[1,5-a]pyrimidine-2-carboxamide]",pEC50 [2]: 6.96
6.26,"Cc1cccc(-c2cc(Nc3cc(N4CCOCC4)n4nc(-c5ccncc5)cc4n3)[nH]n2)c1 [Example 4, 7-morpholino-N-[3-(m-tolyl)-1H-pyrazol-5-yl]-2-(4-pyridyl)pyrazolo[1,5-a]pyrimidin-5-amine, Hydrogen Chloride Salt]",
< 5.00,"Cc1cc(-c2ccn(-c3cc(N4CCOCC4)n4nc(-c5cccnc5)cc4n3)n2)ccn1 [Compound 103, 4-[5-[3-(2-methyl-4-pyridyl)pyrazol-1-yl]-2-(3-pyridyl)pyrazolo[1,5-a]pyrimidin-7-yl]morpholine]",
6.48,"C[C@H](NC(=O)c1cc2nc(-n3ccc(-c4ccccc4)n3)cc(N3CCOCC3)n2n1)C1CC1 [Compound 75, N-[(1S)-1-cyclopropylethyl]-7-morpholino-5-(3-phenylpyrazol-1-yl)pyrazolo[1,5-a]pyrimidine-2-carboxamide]",
5.36,"CC(C)NC(=O)c1cc2nc(-n3cc(-c4ccccc4)cn3)cc(N3CCOCC3)n2n1 [Compound 80, N-isopropyl-7-morpholino-5-(4-phenylpyrazol-1-yl)pyrazolo[1,5-a]pyrimidine-2-carboxamide]",
7.70,"Brc1cccc(-c2ccn(-c3cc(N4CCOCC4)n4nc(-c5cccnc5)cc4n3)n2)c1 [Compound 106, 4-[5-[3-(3-bromophenyl)pyrazol-1-yl]-2-(3-pyridyl)pyrazolo[1,5-a]pyrimidin-7-yl]morpholine]",
5.59,"c1cc(-c2cnn(-c3cc(N4CCOCC4)n4nc(-c5ccncc5)cc4n3)c2)ccn1 [Example 11, 4-[2-(4-pyridyl)-5-[4-(4-pyridyl)pyrazol-1-yl]pyrazolo[1,5-a]pyrimidin-7-yl]morpholine]",
5.47,"Cc1cccc(-c2cnn(-c3cc(N4CCOCC4)n4nc(C(=O)NC5CCOCC5)cc4n3)c2)c1 [Compound 56, 7-morpholino-5-[4-(m-tolyl)pyrazol-1-yl]-N-tetrahydropyran-4-yl-pyrazolo[1,5-a]pyrimidine-2-carboxamide]",
5.59,"Cc1ccc(-c2cc(Nc3cc(N4CCOCC4)n4nc(-c5ccncc5)cc4n3)[nH]n2)cc1 [Example 1, 7-morpholino-2-(pyridin-4-yl)-N-(3-(p-tolyl)-1H-pyrazol-5-yl)pyrazolo[1,5-a]pyrimidin-5-amine, hydrogen chloride salt]",
6.68,"c1ccc(-c2ccn(-c3cc(N4CCOCC4)n4nc(-c5cccnn5)cc4n3)n2)cc1 [Compound 88, 4-[5-(3-phenylpyrazol-1-yl)-2-pyridazin-3-yl-pyrazolo[1,5-a]pyrimidin-7-yl]morpholine]",

Structure (SMILES),pIC50 [1],also measured
"Cc1cccc(-c2cnn(-c3cc(N4CCOCC4)n4nc(-c5ccncn5)cc4n3)c2)c1 [Compound 57, 4-[5-[4-(m-tolyl)pyrazol-1-yl]-2-pyrimidin-4-yl-pyrazolo[1,5-a]pyrimidin-7-yl]morpholine]",5.43,
"COC(=O)NCc1cc2nc(-n3ccc(-c4ccccc4)n3)cc(N3CCOCC3)n2n1 [Compound 89, methyl N-[[7-morpholino-5-(3-phenylpyrazol-1-yl)pyrazolo[1,5-a]pyrimidin-2-yl]methyl]carbamate]",5.85,
